Test: Pharmacokinetic study of oral zinc gluconate, plasma zinc by atomic absorption spectrometry
Type: in vivo, Labrador Retrievers
Set-up: unit not given here
Protocol: Two unrelated nine-year old, healthy Labrador Retrievers (1 female and 1 male) were used in a pharmacokinetic study. Food was withheld for a 12-hour period prior to oral administration of zinc, and during the initial 6-hour testing period. Water was freely available. […] Heparinized blood samples (4 ml) were collected from the jugular vein before dosing (time 0) and 15, 30, 45, 60, 90, 120 minutes, and 4, 8, 12 and 24 hours after application of the drug. Plasma was stored at −20° C. until analysis for zinc using atomic absorption spectrometry.
In addition the test was used to detect a difference between group-1 and group-2 before the study, at recheck-1, and at recheck-2 (significance level p<0.05).

With zinc gluconate the “K01: absorption rate constant” value (Dog 1, oral 10 mg/kg) was 0.5672, the “K10: elimination rate constant” value (Dog 1, oral 10 mg/kg) was 0.05373 and the “K01: absorption rate constant” value (Dog 2, oral 5 mg/kg) was 1.161. The “K10: elimination rate constant” value (Dog 2, oral 5 mg/kg) was 0.03789.
